This note sets out measurements from US8609610B2, “Inhibitors of the trypsin-like site of the proteasome and methods of use thereof” (Trustees of Dartmouth College, priority 2011, dated 2013).

The term IC50 denotes the concentration that inhibits the measured activity by half.

Series [1] relates to NCI-H929 cells. The experiment in a line: ALAMAR BLUE cell viability assay. In kind it is cell-based. The method, boiled down: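 Myeloma lines were grown in RPMI-1640 with 10% FBS; viability of myeloma cells was read by ALAMAR BLUE mitochondrial dye conversion. PBMNC viability used CELL TITER-GLO ATP luminescence. Caspase-3/7 activity in NCI-H929 and MM1.R was measured with the APO-ONE homogeneous assay.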
(The colour change of resazurin is a common sign of viable cells or microbes.)

In series [2] the test system is MM cell lines NCI-H929, MM1.R, RPMI-8226, KMS-18, KMS-12-BM. The series is described as follows: ALAMAR BLUE viability, panel of MM cell lines. In kind it is cell-based. How it is done: RPMI-8226 and NCI-H929 cells were cultured in RPMI-1640 supplemented with 10% fetal bovine serum, penicillin, streptomycin, and plasmocin in 5% CO2 humidified incubator. HEK-293T cells were cultured in DMEM containing 10% fetal calf serum, 10 units/mL penicillin, and 10 μg/mL streptomycin in a 7% CO2 humidified incubator. Viability of multiple myeloma cells was measured with ALAMAR BLUE mitochondrial dye conversion assay. Viability of peripheral blood mononuclear cells (PBMNCs) was measured using CELL TITER-GLO luminescent cell viability assay (Promega), which is based on quantification of ATP present in the cells. Caspase-3/7 activity was measured using APO-ONE 3/7 homogeneous assay (Promega).
In a parallel set of experiments, it was tested whether co-inhibiting caspase-like and trypsin-like sites suffices to induce cytotoxicity in the absence of inhibition of the chymotrypsin-like sites and whether such dual inhibition is a stronger sensitizer to LU-005 than inhibition of the trypsin-like sites alone. Four additional myeloma cell lines, MM1.R, RPMI-8226, KMS-18, and KMS-12-BM, were selected for these experiments. These cell lines vary up to 40-fold in their sensitivity to bortezomib and NC-005 (Britton, et al. (2009) supra). In all experiments, NC-022 was used at a concentration that inhibited trypsin-like activity by more than 90% after a 6-hour incubation.

In series [3] the target is T1, chymotrypsin-like site of 26S proteasomes (Oryctolagus cuniculus, UniProt G1T4Q9).
T1 sequence (G1T4Q9 1-263): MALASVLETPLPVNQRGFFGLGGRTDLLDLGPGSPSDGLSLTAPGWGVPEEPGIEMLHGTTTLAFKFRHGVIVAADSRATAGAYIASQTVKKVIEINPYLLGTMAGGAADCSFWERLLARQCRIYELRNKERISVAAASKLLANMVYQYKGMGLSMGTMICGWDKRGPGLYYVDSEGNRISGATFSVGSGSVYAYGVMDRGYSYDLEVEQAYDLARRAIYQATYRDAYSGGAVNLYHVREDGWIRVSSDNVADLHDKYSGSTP
The series is described as follows: Inhibition of purified 26S proteasomes, substrate Suc-LLVY-amc. In kind it is biochemical, rabbit. Conditions: >>30 no inhibition at 30 μM, >30 inhibition between 10 and 50% at 30 μM, read-out: IC50 for sites in 26S proteasomes: Chym-L.

Consider `Cc1c(O)cccc1C(=O)N[C@H](C(=O)N[C@@H](CO)C(=O)N[C@@H](CCCNC(=N)N)C(=O)[C@@]1(C)CO1)C(C)C` [NC-022, HMB-Val-Ser-Arg-ek], for which the “sensitization: change of IC50 of LU-005” value in series [1] (LU-005 1 hour, then NC-022 48 hours, maximal at 3 μM NC-022) is listed as “up to 8.5 fold”. In series [1] (NCI-H929, 48 hours, even at concentrations that completely inhibited the trypsin-like sites), the cell viability result is reported as “No loss of viability”. In series [2] (NCI-H929 and KMS-12-BM), the “sensitization to LU-005 compared with NC-001” value is “more potent sensitizer than NC-001”. Further, in series [2] (all MM cell lines, NC-022 at concentration inhibiting trypsin-like activity >90% after 6 h), the “reduction of the IC50 for LU-005” value is given as 4-10 fold. Besides, the “reduction of cell viability” value in series [2] (continuous exposure to mixture of NC-022 and NC-001, both sites blocked by more than 90%) was 20-50%. Also, the “sensitization of MM cells to LU-005” value in series [2] (mixture of NC-001 and NC-022 after 1 hour LU-005) is listed as “much stronger sensitizer than NC-022 alone”. Besides, in series [3], the IC50 came out at 1700 nM.
